We go through two compounds from patent US20250346550A1, “METHODS OF MODULATING ENDONUCLEASE G USING RESVERATROL AND ITS DERIVATIVES” (THE REGENTS OF THE UNIVERSITY OF COLORADO A BODY CORPORATE, priority 2022, published 2025).

Series [1] deals with PME defect of cps-6(tm3222) embryos. Briefly: PME microscopy assay in cps-6(tm3222) crosses. The format is in vivo, C. elegans. The following applies: 50 μM, 64-cell embryos (FIG. 3e-g).
Method: The numbers of MTR-stained paternal mitochondrial clusters in embryos at 64-cell (a) or 16-cell (b) stage from the indicated crosses were scored. N2 males or hermaphrodites were pretreated with 0.25% ethanol (Mock), 50 μM cis-resveratrol (a), or 50 μM trans-resveratrol (b) as indicated before mating. c-g, Quantification of MTR-stained paternal mitochondrial clusters in 64-cell embryos from the indicated crosses treated with 0.25% ethanol (Mock), 50 μM cis-resveratrol, and 50 μM trans-resveratrol, respectively. Alleles used are lgg-1(bp523), cps-6(tm3222) and rad-23(tm2595).
The numbers of MTR-stained paternal mitochondrial clusters were scored as in FIG. 1a. cps-6(tm3222) and lgg-1(bp523) alleles were used in the assays. Data are mean±s.e.m. n=20 embryos (b) and 15 embryos (c) in each experiment. **P<0.01; ***P<0.001; n.s., not significant, two-sided, unpaired t-test.
To investigate how these six compounds might affect PME, the present inventors performed chemical genetic analysis to analyze the PME pathways that might be affected by the compounds. The present inventors first examined whether they might affect the paternal PME pathway mediated by the mitochondrial endonuclease CPS-6, whose activity is inhibited by oxidation and protected by reducing agents.
Series [2] in a line: HPLC analysis of resveratrol isomer composition / interconversion. It counts as physicochemical. The following applies: UV irradiation 4 hours at 0° C.; for fraction converted into the other isomer on UV exposure: pure isomer, 50 μM solution. How it is done:
FIG. 2. High performance liquid chromatography analysis of resveratrol isomers. a, b, e-g HPLC profiles and peak retention times detected at 303 nm of 1.0 μg commercially “pure” trans-resveratrol (a), 1.0 μg of commercially “pure” cis-resveratrol (b), 20 μL of 50 μM aged trans-resveratrol solution (e), 20 μL of 50 μM commercially “pure” trans-resveratrol solution subjected to UV irradiation for 4 hours at 0° C. (f), and 20 μL of 50 μM commercially “pure” cis-resveratrol solution subjected to UV irradiation for 4 hours at 0° C. (g). Due to the different extinction coefficients of the resveratrol isomers, standard curves of trans-resveratrol (c) and cis-resveratrol (d) were generated by analyzing a series of working solutions for each isomer. Good linear correlations (R^2≥0.9999) were acquired over the concentration range of 0-45 μM trans-resveratrol (c) and 0-110 μM cis-resveratrol (d), with the corresponding regression equations. (h) Compositions of the resveratrol isomers in the indicated samples, without or with UV irradiation (see Methods) as quantified by HPLC.
To confirm the interconversion between trans-resveratrol and cis-resveratrol and to quantitatively measure the ratio of cis- and trans-isomers in the resveratrol solution, we performed high performance liquid chromatography (HPLC) analysis, which can effectively separate trans- and cis-isomers (FIG. 2a, b). […] This ratio of trans- and cis-resveratrol accounts for the unexpected PME inhibition by the aged trans-resveratrol solution (FIG. 1a, b), because cis-resveratrol could inhibit PME (FIG. 1d) and became the dominant isomer in this aged trans-resveratrol solution (FIG. 2h).

Series [3] has as its system paternal uaDf5 mtDNA in cross-fertilized embryos. Briefly: PCR-based PME assay (paternal uaDf5 mtDNA). The format is in vivo, C. elegans. The following applies: 50 μM; mock: detected up to 64-cell stage embryos. An excerpt: FIG. 7. Effects of different dosages of resveratrol isomers on PME. a, b, The effects of different dosages of cis-resveratrol (a) and trans-resveratrol (b) on PME. The numbers of MTR-stained paternal mitochondrial clusters in 64-cell embryos (a) or 16-cell embryos (b) from mating of MTR-stained N2 males with N2 hermaphrodites in the presence of the indicated concentrations of resveratrol isomers were scored. […] A single cross-fertilized embryo or larva (MTR- or GFP-positive) at the indicated stage was analyzed by PCR. uaDf5/+ and N2 hermaphrodites were controls.
We confirmed these findings using a polymerase chain reaction (PCR)-based PME assay, which monitors the fate of paternal mtDNA in fertilized eggs from males carrying a 3053 bp mtDNA deletion allele (uaDf5) in a heteroplasmic mixture with wild-type mtDNA (FIG. 7c). In mating between N2 hermaphrodites and uaDf5/+ males treated with the mock control, PCR products derived specifically from paternal uaDf5 mtDNA were detected only in early stage cross-fertilized embryos, up to 64-cell stage embryos (FIG. 2d).

Series [4] deals with α-synuclein-induced dopaminergic neuronal death in baIn11 animals. Briefly: α-synuclein-based Parkinson's Disease model, DA neuronal death. The format is in vivo, C. elegans. The note with it: 100 μM; for effect on α-synuclein-induced DA neuronal death: adult day 2 baIn11 animals vs 0.25% ethanol. From the text:
(§1) FIG. 8. […] In each experiment, 300 animals were scored to determine the percentage of animals losing at least one dopaminergic neuron in the head. Data are mean±s.e.m. *P<0.05; ***P<0.001, two-sided, unpaired t-test.
FIG. 13. […] In each experiment, 300 animals were scored to determine the percentage of animals losing at least one of the six dopaminergic neurons in the head. Data are mean±s.e.m. ****P<0.001, two-sided, unpaired t-test.
(§2) In addition to PME and apoptosis, EndoG was previously shown to play an important role in mediating dopaminergic (DA) neuronal death induced by expression of human α-synuclein, which is widely considered to be a major proponent of Parkinson's disease. However, the mechanism by which EndoG mediates α-synuclein-induced neurodegeneration is unclear. In a C. elegans α-synuclein-based Parkinson's Disease model, co-expression of GFP and human α-synuclein in C. elegans dopaminergic neurons under the control of the promoter of the dat-1 gene, which encodes a dopamine transporter, from an integrated transgene baIn11 (Pdat-1::gfp/Pdat-1::α-synuclein) caused DA neuronal death in 30% of adult baIn11 animals (FIG. 8a). The cps-6(tm3222) mutation blocked DA neuronal death in adult baIn11 animals (FIG. 8a), confirming that CPS-6 is important for α-synuclein-induced DA neuronal death.

Series [5] concerns cps-6(tm3222); baIn11 animals. As to the kind of experiment: DA neuronal death in cps-6(tm3222); baIn11 animals. It counts as in vivo, C. elegans. The following applies: 100 μM, adult day 2.
Text: as §1, §2

For `Oc1ccc(/C=C/c2cc(O)cc(O)c2)cc1` [trans-resveratrol, 3,5,4′-trihydroxy-trans-stilbene], the “effect on PME defect in cps-6(tm3222) mutant and cps-6; lgg-1 and cps-6; rad-23 double mutants” value in series [1] was “neither cis-resveratrol nor trans-resveratrol could enhance or suppress the PME defect”. The “fraction converted into the other isomer on UV exposure” value in series [2] is listed as 68.5%. Besides, the “fate of paternal uaDf5 mtDNA” value in series [3] is “accelerated degradation of uaDf5 mtDNA”. Further, in series [4] (adult day 2, mock 30%), the “adult baIn11 animals with neurodegeneration (DA neuronal loss)” value is listed as 40%. In series [4], the “effect on α-synuclein-induced DA neuronal death” value is “enhanced dopaminergic neuron loss”. Further, in series [5], the “dopaminergic neuronal loss in cps-6(tm3222); baIn11 animals” value is on record as “did not cause any dopaminergic neuronal loss”.

As to `Oc1ccc(/C=C\c2cc(O)cc(O)c2)cc1` [cis-resveratrol], the “effect on PME defect in cps-6(tm3222) mutant and cps-6; lgg-1 and cps-6; rad-23 double mutants” value in series [1] was “neither cis-resveratrol nor trans-resveratrol could enhance or suppress the PME defect”. In series [2], the “cis-resveratrol remaining in the mixture after UV exposure” value is 60% and the “fraction converted into the other isomer on UV exposure” value worked out at 40%. Further, in series [3], the “fate of paternal uaDf5 mtDNA” value is reported as “persistence of uaDf5 mtDNA to the late 4-fold embryos”. Further, in series [4] (adult day 2), the “adult baIn11 animals protected from neurodegeneration” value came to 94%. Besides, the “effect on α-synuclein-induced DA neuronal death” value in series [4] was “strongly inhibited DA neuronal death”. For the same compound, the “dopaminergic neuronal loss in cps-6(tm3222); baIn11 animals” value in series [5] was “did not cause any dopaminergic neuronal loss”.
